According to BigSolDB 2.1:

c1ccc(-c2ccc(C(c3ccccc3)n3ccnc3)cc2)cc1 (stereo not given)
solubility (mole fraction)
Conditions | 278.15 K | 283.15 K | 288.15 K | 293.15 K | 298.15 K | 303.15 K | 308.15 K | 313.15 K | 318.15 K
in isopropanol | 0.00118 | 0.00165 | 0.00222 | 0.00309 | 0.0041 | 0.00554 | 0.00722 | 0.00951 | 0.0123
in methanol | 0.00228 | 0.00304 | 0.00395 | 0.00517 | 0.0066 | 0.00844 | 0.0106 | 0.0135 | 0.0166
in n-propanol | 0.00142 | 0.00196 | 0.00266 | 0.00355 | 0.00468 | 0.00612 | 0.00799 | 0.0106 | 0.0134
in propylene glycol | 0.0017 | 0.00233 | 0.00316 | 0.00418 | 0.00547 | 0.00707 | 0.00916 | 0.0117 | 0.0149
in water | 6.6e-06 | 9.22e-06 | 1.27e-05 | 1.7e-05 | 2.05e-05 | 2.88e-05 | 3.87e-05 | 4.82e-05 | 6.11e-05
